Patent US20220226321A1, “INHIBITOR OF MNK FOR THE TREATMENT OF NEUROPATHIC PAIN” (Board of Regents, The University of Texas System, priority 2019, published 2022)
Entries after “also recorded” stand apart in the source; their conditions may differ.

How the values were obtained:
paclitaxel-treated mice = test: mechanical paw withdrawal threshold (von Frey) in paclitaxel-induced CIPN; format: in vivo, mouse; conditions: for mechanical allodynia / hypersensitivity, acute treatment: 10 mg/kg i.p. after full development of CIPN, 1st and 2nd injection, 1 and 3 hrs
mice = test: marble burying task; format: in vivo, mouse; conditions: 10 mg/kg p.o. daily for 7 days, vs WT naïve
Method: Marble burying task. The marble burying task was used to assess obsessive compulsive disorder (OCD)-like behaviors as previously described^28. Nineteen marbles were placed on top of 5 cm of standard bedding in a clean cage. A mouse was placed into the cage for 30 minutes and then the number of buried marbles was counted.

DLBCL cell lines = conditions: cited from earlier work
[1] = system: cultured mouse DRG neurons; test: microelectrode array (MEA) recordings of cultured DRG neurons exposed to IL-6; format: cell-based; conditions: for spontaneous firing: IL-6 100 ng/ml, tomivosertib 25 nM co-treatment
Method: Extracellular electrophysiology. Substrate-integrated microelectrode array (MEA) recordings were performed using PDL and laminin pre-treated 12-well MEA plates (Axion Biosystems, USA) and an Axion Maestro recording system. DRG sensory neurons were dissected, dissociated, and seeded as previously described (Moy et al., 2017). […] Cultures were maintained at 37° C., 5% CO2, and ≥90% humidity throughout the recordings. Briefly, 30 min baseline recordings were carried out following a 30 min acclimation period. […] Recordings were then collected continuously for 3 hours. […] Online and offline MEA data analysis was performed using Axion's AxIS, NeuralMetrics Tools, and NeuroExplorer (NeuroExplorer, USA). Physiologically relevant extracellular action potentials were defined as previously described^29.

SNI mice [2] = test: attentional rule-shifting task after SNI; format: in vivo, mouse; conditions: SNI mice vs SNI+vehicle, 10 mg/kg p.o. 7 days
Method: (§1) Surgery. Spared nerve injury (SNI) was performed by the ligation and cutting of the tibial and peroneal branches of the left sciatic nerve trifurcation, leaving the sural branch intact as previously described (Decosterd and Woolf, 2000). Sham surgeries were performed the same way but without cutting the nerve. Mice were allowed to recover for 2 weeks following surgery.
Attentional rule-shifting. Habituation: Mice were handled and gradually food restricted to 90% of their baseline weight over 3 weeks. Habituation took place over 3 days in which food rewards (Cheerio bits) were placed along each arm of a plusmaze. Mice were allowed to freely explore the maze and consume the food for 4 trials per day with a maximum time of 30 minutes per trial. When the mouse had consumed all of the food, the trial ended, and the mouse was returned to a holding cage while the maze was rebaited. The number of food pellets in each arm decreased from 4 to 2 to 1 on each consecutive day of habituation. Turn bias: On the fourth day the inventors assessed the animals' turn bias. Therefore, the plus maze was converted into a T-maze by blocking off one of the arms. Mice were placed in the stem arm (starting arm) and allowed to turn left or right to obtain a food pellet. After the mouse consumed the reward, it was returned to the stem arm and allowed to make another choice. […]

DRG = test: measurement of protein synthesis by puromycin incorporation in DRG; format: in vivo, mouse; conditions: single dose 10 mg/kg
Method: Measurement of Protein Synthesis. Eight to 12-week-old wild-type and eiF4E^S209A mice were injected with puromycin (10 mg/kg via the intraperitoneal route, i.p.), and 1 hr later, DRGs were collected and processed for Western blotting using anti-puromycin monoclonal antibody (PMY-2A4, KeraFast). […] Protein synthesis was determined by measuring total lane signal from 250-15 KDa and subtracting unlabeled protein control. Signals were quantified using Image Lab (BioRad, Hercules, Calif.).

SNI mice [3] = test: conditioned place preference (CPP) after SNI; format: in vivo, mouse; conditions: WT SNI, 10 mg/kg i.p., single conditioning day
Method: Conditioned Place Preference. A previously published CPP protocol from the Walters laboratory protocol was used (Yang et al., 2014). The CPP box consisted of one black and one white chamber connected by a striped chamber. CPP was conducted in a dark room with a single low lumens light source (Maia 69E120-WH). The middle chamber of the CPP box was brightly illuminated to discourage mice from spending time in the middle chamber. […] On day 1 of testing (preconditioning), each mouse was permitted to explore the middle and black (but not white) chambers for 30 minutes. […] On the last day of CPP, each mouse was placed in the middle chamber with unrestricted access to all chambers and video-recorded for 10 min. Data are presented as the percent change in time spent in the drug-paired chambered compared to the control (vehicle or sham for each genotype or surgery). This was calculated by dividing each animal's time spent in the white box by the control average, multiplying by 100 and then subtracting 100.
as §1

[4] = system: cultured mouse DRG neurons; test: Western blot of cultured primary DRG neurons treated with eFT508; format: cell-based

## Cc1cc(Nc2cc(N)ncn2)c(=O)n2c1C(=O)NC21CCCCC1 [eFT508, Tomivosertib]
paclitaxel-treated mice; 1 mg/kg, WT mice
  mechanical hypersensitivity (established CIPN), chronic treatment: robust relief of mechanical hypersensitivity; also recorded: reverses established CIPN
  tolerance to repeated dosing: No signs of tolerance; also recorded: without inducing tolerance
paclitaxel-treated mice; 1 mg/kg, eIF4E^S209A mice
  mechanical hypersensitivity, chronic treatment: completely absent; also recorded: completely without effect
paclitaxel-treated mice
  mechanical allodynia / hypersensitivity, acute treatment: reversal; also recorded: transiently relieves mechanical allodynia
paclitaxel-treated mice; listed as eFT08
  mechanical allodynia / hypersensitivity, acute treatment: relieves mechanical allodynia
mice
  marble burying: no differences in marble burying; also recorded: performed similarly to naïve and vehicle-controls
DLBCL cell lines; TMD8, OCI-Ly3 and HBL1 DLBCL cell lines
  production of pro-inflammatory cytokines including TNFα, IL-6, IL-10 and CXCL10: dose-dependent decreases
DLBCL cell lines
  decrease in TNFα mRNA half-life: 2 fold
DLBCL cell lines; multiple DLBCL cell lines
  anti-proliferative activity: anti-proliferative activity
[1]; 25 nM
  firing, tomivosertib only vs IL-6 only group: reduction in firing
[1]; listed as Tomivosertib
  spontaneous firing: significantly reduced
[1]; listed as tomivosertib
  spontaneous firing: attenuated
[1]; tomivosertib only group
  firing rate at treatment time points vs baseline recording: no significant difference in firing rate
SNI mice [2]
  never-reinforced (NRE) and regressive (REG) type errors: significantly fewer
DRG
  general translation (puromycin incorporation in the DRG): not influenced
SNI mice [3]
  more time in the drug-paired (white) chamber vs SNI animals that received vehicle: ~40%
[4]; 1 μM for 1 hr
  RagA protein level: decrease
[4]; 0.1 and 1 μM, 1 hr
  level of eIF4E phosphorylation: significantly reduced
  other signaling pathways: without affecting other signaling pathways
[4]; cultured DRGs neurons
  reduction of eIF4E phosphorylation: 90%
